Where a name gives a salt, the structure may show the parent alone.

Sequence of catalytic domain of human PARP14 (Q460N5 1611-1801): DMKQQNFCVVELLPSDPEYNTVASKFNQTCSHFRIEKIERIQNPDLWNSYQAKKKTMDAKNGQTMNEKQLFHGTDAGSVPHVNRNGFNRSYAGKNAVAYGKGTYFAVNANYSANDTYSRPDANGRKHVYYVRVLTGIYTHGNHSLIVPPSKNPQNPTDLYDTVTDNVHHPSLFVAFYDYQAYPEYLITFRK

This experiment concerns the target catalytic domain of human PARP14 (Homo sapiens (Human), UniProt Q460N5). As to the kind of experiment: Enzymatic assay for inhibition of PARP14 (DELFIA, auto-modification with biotin-NAD). The note with it: auto-modification of PARP14 by biotin-NAD, 50 nM PARP14, 3 μM biotin-NAD. The experiment is classed as biochemical. The essentials:
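His-TEV-tagged PARP14 catalytic domain (50 nM) preincubated with compound 30 min at 25 °C, then auto-modified with 3 μM biotin-NAD for 3 h at 25 °C in HEPES pH 8 buffer with DTT. IC50 from 4-parameter fit, rucaparib and DMSO as controls.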
In the case of `Cc1cccc2c(=O)[nH]c(CSC3CCCC(N)CC3)nc12` (centres unmarked) [Example 53, 2-(((4-Aminocycloheptyl)thio)methyl)-8-methylquinazolin-4(3H)-one Trifluoroacetate], the half-inhibitory concentration (IC50) (in general, the concentration at which inhibition is half-maximal) was < 1000 nM. Regarding `Cc1ccc(F)c2c(=O)[nH]c(CSC3CCC(O)CC3)nc12` (centres unmarked) [Example 56, 5-Fluoro-2-(((4-hydroxycyclohexyl)thio)methyl)-8-methylquinazolin-4(3H)-one], the IC50 is < 1000 nM.

`Cc1ccc(F)c2c(=O)[nH]c(CS[C@H]3CC[C@H](O)CC3)nc12` [Example 57, 5-Fluoro-2-(((trans-4-hydroxycyclohexyl)thio)methyl)-8-methylquinazolin-4(3H)-one]: the half-maximal inhibitory concentration (IC50) is < 1000 nM.

For `Cc1ccc(F)c2c(=O)[nH]c(CS[C@H]3CC[C@@H](O)CC3)nc12` [Example 58, 5-Fluoro-2-(((cis-4-hydroxycyclohexyl)thio)methyl)-8-methylquinazolin-4(3H)-one], the IC50 is < 1000 nM. For the molecule `Cc1ccc(C(F)(F)F)c2c(=O)[nH]c(CSC3CCC(O)CC3)nc12` (centres unmarked) [Example 59, 2-(((4-Hydroxycyclohexyl)thio)methyl)-8-methyl-5-(trifluoromethyl)quinazolin-4(3H)-one], the IC50 was < 1000 nM. The same measure for `Cc1ccc(C(F)(F)F)c2c(=O)[nH]c(CS[C@H]3CC[C@H](O)CC3)nc12` [Example 60, 2-(((trans-4-Hydroxycyclohexyl)thio)methyl)-8-methyl-5-(trifluoromethyl) quinazolin-4(3H)-one]: < 1000 nM; for `Cc1ccc(C(F)(F)F)c2c(=O)[nH]c(CS[C@H]3CC[C@@H](O)CC3)nc12` [Example 61, 2-(((cis-4-Hydroxycyclohexyl)thio)methyl)-8-methyl-5-(trifluoromethyl) quinazolin-4(3H)-one]: < 1000 nM. As to `Cc1cccc2c(=O)[nH]c(CS[C@H]3CC[C@H](CO)CC3)nc12` [Example 62, 2-(((trans-4-(Hydroxymethyl)cyclohexyl)thio)methyl)-8-methylquinazolin-4(3H)-one], the 50% inhibitory concentration (IC50) is < 1000 nM. The molecule `Cc1cccc2c(=O)[nH]c(CS[C@H]3CC[C@@H](CO)CC3)nc12` [Example 63, 2-(((cis-4-(Hydroxymethyl)cyclohexyl)thio)methyl)-8-methylquinazolin-4(3H)-one] showed an IC50 of 1000 to 10000 nM. As to `Cc1cccc2c(=O)[nH]c(CSC3CCC(CN)CC3)nc12` (centres unmarked) [Example 64, 2-(((4-(Aminomethyl)cyclohexyl)thio)methyl)-8-methylquinazolin-4(3H)-one Trifluoroacetate], the IC50 was < 1000 nM.

Regarding `Cc1cccc2c(=O)[nH]c(CS[C@H]3CC[C@@H](CN)CC3)nc12` [Example 65, 2-(((cis-4-(Aminomethyl)cyclohexyl)thio)methyl)-8-methylquinazolin-4(3H)-one Trifluoroacetate], the IC50 was in the range of 1000 to 10000 nM. As to `Cc1cccc2c(=O)[nH]c(CS[C@H]3CC[C@H](CN)CC3)nc12` [Example 66, 2-(((trans-4-(Aminomethyl)cyclohexyl)thio)methyl)-8-methylquinazolin-4(3H)-one Trifluoroacetate], the half-maximal inhibitory concentration (IC50) is < 1000 nM.

Consider `Cc1cccc2c(=O)[nH]c(CSC3CCC(CN(C)C)CC3)nc12` (centres unmarked) [Example 67, 2-(((4-((Dimethylamino)methyl)cyclohexyl)thio)methyl)-8-methylquinazolin-4(3H)-one trifluoroacetate], for which the IC50 was < 1000 nM. The value for `Cc1cccc2c(=O)[nH]c(CS[C@H]3CC[C@@H](CN(C)C)CC3)nc12` [Example 68, 2-(((cis-4-((Dimethylamino)methyl)cyclohexyl)thio)methyl)-8-methyl quinazolin-4(3H)-one Trifluoroacetate] was 1000 to 10000 nM; that for `Cc1cccc2c(=O)[nH]c(CS[C@H]3CC[C@H](CN(C)C)CC3)nc12` [Example 69, 2-(((trans-4-((Dimethylamino)methyl)cyclohexyl)thio)methyl)-8-methyl quinazolin-4(3H)-one Trifluoroacetate] was < 1000 nM; that for `CNC[C@H]1CC[C@H](SCc2nc3c(C)cccc3c(=O)[nH]2)CC1` [Example 73, 8-Methyl-2-(((trans-4-((methylamino)methyl)cyclohexyl)thio)methyl) quinazolin-4(3H)-one] was < 1000 nM. The same measure for `Nc1ccc2c(=O)[nH]c(CSC3CCOCC3)nc2c1` [Example 74, 7-Amino-2-(((tetrahydro-2H-pyran-4-yl)thio)methyl)quinazolin-4(3H)-one]: > 10000 nM. The same measure for `CC(=O)Nc1ccc2c(=O)[nH]c(CSC3CCOCC3)nc2c1` [Example 75, N-(4-Oxo-2-(((tetrahydro-2H-pyran-4-yl)thio)methyl)-3,4-dihydroquinazolin-7-yl)acetamide]: > 10000 nM. `O=C(Nc1ccc2c(=O)[nH]c(CSC3CCOCC3)nc2c1)c1ccccc1` [Example 76, N-(4-Oxo-2-(((tetrahydro-2H-pyran-4-yl)thio)methyl)-3,4-dihydroquinazolin-7-yl)benzamide] gave a half-inhibitory concentration (IC50) of 1000 to 10000 nM. The same measure for `CNC(=O)c1ccc2c(=O)[nH]c(CSC3CCOCC3)nc2c1` [Example 77, N-Methyl-4-oxo-2-(((tetrahydro-2H-pyran-4-yl)thio)methyl)-3,4-dihydro Quinazoline-7-carboxamide]: > 10000 nM; for `O=C(Nc1ccccc1)c1ccc2c(=O)[nH]c(CSC3CCOCC3)nc2c1` [Example 78, 4-Oxo-N-phenyl-2-(((tetrahydro-2H-pyran-4-yl)thio)methyl)-3,4-dihydro Quinazoline-7-carboxamide]: > 10000 nM; for `O=c1[nH]c(CSC2CCOCC2)nc2cc(Nc3ccccc3)ccc12` [Example 79, 7-(Phenylamino)-2-(((tetrahydro-2H-pyran-4-yl)thio)methyl)quinazolin-4(3H)-one]: < 1000 nM.

Regarding `O=c1[nH]c(CSC2CCOCC2)nc2cc(Nc3cccnc3)ccc12` [Example 80, 7-(Pyridin-3-ylamino)-2-(((tetrahydro-2H-pyran-4-yl)thio)methyl)quinazolin-4(3H)-one], the IC50 was < 1000 nM.

The molecule `O=c1[nH]c(CSC2CCOCC2)nc2cc(Nc3ccccn3)ccc12` [Example 81, 7-(Pyridin-2-ylamino)-2-(((tetrahydro-2H-pyran-4-yl)thio)methyl)quinazolin-4(3H)-one] gave a half-maximal inhibitory concentration (IC50) of 1000 to 10000 nM. The same measure for `COc1ccc(Nc2ccc3c(=O)[nH]c(CSC4CCOCC4)nc3c2)cc1` [Example 82, 7-((4-Methoxyphenyl)amino)-2-(((tetrahydro-2H-pyran-4-yl)thio)methyl)quinazolin-4(3H)-one]: 1000 to 10000 nM. The same measure for `COc1cccc(Nc2ccc3c(=O)[nH]c(CSC4CCOCC4)nc3c2)c1` [Example 83, 7-((3-Methoxyphenyl)amino)-2-(((tetrahydro-2H-pyran-4-yl)thio)methyl)quinazolin-4(3H)-one]: 1000 to 10000 nM; for `COc1ccccc1Nc1ccc2c(=O)[nH]c(CSC3CCOCC3)nc2c1` [Example 84, 7-((2-Methoxyphenyl)amino)-2-(((tetrahydro-2H-pyran-4-yl)thio)methyl)quinazolin-4(3H)-one]: 1000 to 10000 nM. The value for `O=c1[nH]c(CSC2CCOCC2)nc2cc(Nc3cnccn3)ccc12` [Example 85, 7-(Pyrazin-2-ylamino)-2-(((tetrahydro-2H-pyran-4-yl)thio)methyl)quinazolin-4(3H)-one] was 1000 to 10000 nM; that for `O=c1[nH]c(CSC2CCOCC2)nc2cc(Nc3ccncc3)ccc12` [Example 86, 7-(Pyridin-4-ylamino)-2-(((tetrahydro-2H-pyran-4-yl)thio)methyl)quinazolin-4(3H)-one] was 1000 to 10000 nM; that for `O=c1[nH]c(CSC2CCOCC2)nc2cc(Nc3cncnc3)ccc12` [Example 87, 7-(Pyrimidin-5-ylamino)-2-(((tetrahydro-2H-pyran-4-yl)thio)methyl)quinazolin-4(3H)-one] was 1000 to 10000 nM.

As for `Cn1ccnc1Nc1ccc2c(=O)[nH]c(CSC3CCOCC3)nc2c1` [Example 88, 7-((1-Methyl-1H-imidazol-2-yl)amino)-2-(((tetrahydro-2H-pyran-4-yl)thio)methyl)quinazolin-4(3H)-one], the IC50 is > 10000 nM. The value for `O=c1[nH]c(CSC2CCOCC2)nc2cc(Nc3nccs3)ccc12` [Example 89, 2-(((Tetrahydro-2H-pyran-4-yl)thio)methyl)-7-(thiazol-2-ylamino)quinazolin-4(3H)-one] was 1000 to 10000 nM; that for `Cc1ncccc1Nc1ccc2c(=O)[nH]c(CSC3CCOCC3)nc2c1` [Example 90, 7-((2-Methylpyridin-3-yl)amino)-2-(((tetrahydro-2H-pyran-4-yl)thio)methyl)quinazolin-4(3H)-one] was 1000 to 10000 nM; that for `Cc1ccncc1Nc1ccc2c(=O)[nH]c(CSC3CCOCC3)nc2c1` [Example 91, 7-((4-Methylpyridin-3-yl)amino)-2-(((tetrahydro-2H-pyran-4-yl)thio)methyl)quinazolin-4(3H)-one] was 1000 to 10000 nM. As to `Cc1cncc(Nc2ccc3c(=O)[nH]c(CSC4CCOCC4)nc3c2)c1` [Example 92, 7-((5-Methylpyridin-3-yl)amino)-2-(((tetrahydro-2H-pyran-4-yl)thio)methyl)quinazolin-4(3H)-one], the concentration for half-maximal inhibition (IC50) fell in the range of 1000 to 10000 nM.

Consider `Nc1cnn(-c2ccc3c(=O)[nH]c(CSC4CCOCC4)nc3c2)c1` [Example 93, 7-(4-Amino-1H-pyrazol-1-yl)-2-(((tetrahydro-2H-pyran-4-yl)thio)methyl) quinazolin-4(3H)-one Trifluoroacetate], for which the IC50 is > 10000 nM. As to `O=c1[nH]c(CSC2CCOCC2)nc2cc(Nc3ccon3)ccc12` [Example 94, 7-(Isoxazol-3-ylamino)-2-(((tetrahydro-2H-pyran-4-yl)thio)methyl)quinazolin-4(3H)-one], the IC50 is < 1000 nM. The value for `Cc1c(Nc2ccccc2)ccc2c(=O)[nH]c(CSC3CCOCC3)nc12` [Example 95, 8-Methyl-7-(phenylamino)-2-(((tetrahydro-2H-pyran-4-yl)thio)methyl) quinazolin-4(3H)-one] was 1000 to 10000 nM.

Values taken from US10562891B2, “Quinazolinones as PARP14 inhibitors” (Ribon Therapeutics Inc., priority 2017, dated 2020).
